# Like-named read-outs stand apart in the source and are kept apart here.
# How the values were obtained:
# Type in all cases: binding
# [1] = target: T1, HeLa cell extract proteins (Homo sapiens, UniProt O75152)
# T1 construct: endogenous in cells; host or cells: HeLa cell extract
# [2] = target: T2, HeLa cell extract proteins (Homo sapiens, UniProt O95816)
# T2 construct: endogenous in cells; host or cells: HeLa cell extract
# [3] = target: T3, HeLa cell extract proteins (Homo sapiens, UniProt P07437)
# T3 construct: endogenous in cells; host or cells: HeLa cell extract
# T3 sequence (P07437 whole entry): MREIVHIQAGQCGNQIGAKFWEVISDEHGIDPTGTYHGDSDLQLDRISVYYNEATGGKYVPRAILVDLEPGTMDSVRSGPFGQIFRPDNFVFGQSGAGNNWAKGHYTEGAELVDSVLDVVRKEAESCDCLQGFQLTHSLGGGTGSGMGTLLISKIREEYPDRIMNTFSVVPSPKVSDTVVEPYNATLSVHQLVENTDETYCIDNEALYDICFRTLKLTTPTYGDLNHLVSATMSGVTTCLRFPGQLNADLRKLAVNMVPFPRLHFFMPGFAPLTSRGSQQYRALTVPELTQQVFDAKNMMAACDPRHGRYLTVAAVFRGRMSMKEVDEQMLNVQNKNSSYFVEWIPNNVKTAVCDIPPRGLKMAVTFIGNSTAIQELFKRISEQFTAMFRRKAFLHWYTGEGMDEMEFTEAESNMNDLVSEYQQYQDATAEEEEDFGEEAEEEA
# [4] = target: T4, HeLa cell extract proteins (Homo sapiens, UniProt P08238)
# T4 construct: endogenous in cells; host or cells: HeLa cell extract
# T4 sequence (P08238 whole entry): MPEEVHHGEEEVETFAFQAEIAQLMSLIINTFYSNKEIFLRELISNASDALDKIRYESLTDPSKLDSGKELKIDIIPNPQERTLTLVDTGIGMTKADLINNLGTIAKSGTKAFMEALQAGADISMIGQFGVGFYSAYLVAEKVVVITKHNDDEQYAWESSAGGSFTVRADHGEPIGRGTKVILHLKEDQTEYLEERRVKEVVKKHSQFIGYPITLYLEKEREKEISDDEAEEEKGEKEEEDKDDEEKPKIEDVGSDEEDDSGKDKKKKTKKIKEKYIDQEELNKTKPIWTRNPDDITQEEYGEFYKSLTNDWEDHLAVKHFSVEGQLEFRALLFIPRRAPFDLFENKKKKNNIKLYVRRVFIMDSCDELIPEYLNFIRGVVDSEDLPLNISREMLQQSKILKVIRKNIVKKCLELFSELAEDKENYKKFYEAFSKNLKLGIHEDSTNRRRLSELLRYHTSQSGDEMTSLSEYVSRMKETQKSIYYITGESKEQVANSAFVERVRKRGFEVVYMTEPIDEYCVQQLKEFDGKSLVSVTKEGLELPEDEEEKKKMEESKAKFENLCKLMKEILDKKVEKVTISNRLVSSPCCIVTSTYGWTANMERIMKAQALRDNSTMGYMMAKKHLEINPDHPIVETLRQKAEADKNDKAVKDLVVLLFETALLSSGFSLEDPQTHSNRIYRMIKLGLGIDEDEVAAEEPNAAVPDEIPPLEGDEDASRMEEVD
# [5] = target: T5, HeLa cell extract proteins (Homo sapiens, UniProt P12004)
# T5 construct: endogenous in cells; host or cells: HeLa cell extract
# [6] = target: T6, HeLa cell extract proteins (Homo sapiens, UniProt P15121)
# T6 construct: endogenous in cells; host or cells: HeLa cell extract
# [7] = target: T7, HeLa cell extract proteins (Homo sapiens, UniProt P21359)
# T7 construct: endogenous in cells; host or cells: HeLa cell extract
# [8] = target: T8, HeLa cell extract proteins (Homo sapiens, UniProt P38646)
# T8 construct: endogenous in cells; host or cells: HeLa cell extract
# [9] = target: T9, HeLa cell extract proteins (Homo sapiens, UniProt P49336)
# T9 construct: endogenous in cells; host or cells: HeLa cell extract
# T9 sequence (P49336 whole entry): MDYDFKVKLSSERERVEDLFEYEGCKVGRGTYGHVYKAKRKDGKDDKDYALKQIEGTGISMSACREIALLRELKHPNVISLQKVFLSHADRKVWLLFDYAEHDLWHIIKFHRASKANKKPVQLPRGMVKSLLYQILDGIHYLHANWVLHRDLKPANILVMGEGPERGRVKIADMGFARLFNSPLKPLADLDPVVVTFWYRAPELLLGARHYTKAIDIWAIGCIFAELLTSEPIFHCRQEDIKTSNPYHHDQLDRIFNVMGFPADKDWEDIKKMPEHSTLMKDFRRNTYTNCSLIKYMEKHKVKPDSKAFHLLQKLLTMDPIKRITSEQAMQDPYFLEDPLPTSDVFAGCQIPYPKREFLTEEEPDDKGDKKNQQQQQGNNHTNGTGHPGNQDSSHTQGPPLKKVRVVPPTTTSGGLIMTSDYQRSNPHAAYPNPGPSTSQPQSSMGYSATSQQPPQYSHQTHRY
# [10] = target: T10, HeLa cell extract proteins (Homo sapiens, UniProt P49411)
# T10 construct: endogenous in cells; host or cells: HeLa cell extract
# [11] = target: T11, HeLa cell extract proteins (Homo sapiens, UniProt P53611)
# T11 construct: endogenous in cells; host or cells: HeLa cell extract
# T11 sequence (P53611 1-331): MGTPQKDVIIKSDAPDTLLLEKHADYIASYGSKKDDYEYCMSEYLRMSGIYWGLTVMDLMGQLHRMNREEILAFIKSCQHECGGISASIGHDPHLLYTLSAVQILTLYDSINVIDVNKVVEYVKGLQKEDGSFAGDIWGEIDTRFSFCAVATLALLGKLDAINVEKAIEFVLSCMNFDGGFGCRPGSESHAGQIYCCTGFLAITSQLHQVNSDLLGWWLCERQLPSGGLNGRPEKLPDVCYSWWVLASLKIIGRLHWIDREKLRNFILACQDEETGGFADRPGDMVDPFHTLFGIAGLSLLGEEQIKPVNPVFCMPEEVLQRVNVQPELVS
# [12] = target: T12, HeLa cell extract proteins (Homo sapiens, UniProt P63244)
# T12 construct: endogenous in cells; host or cells: HeLa cell extract
# [13] = target: T13, HeLa cell extract proteins (Homo sapiens, UniProt P78527)
# T13 construct: endogenous in cells; host or cells: HeLa cell extract
# [14] = target: T14, HeLa cell extract proteins (Homo sapiens, UniProt P81605)
# T14 construct: endogenous in cells; host or cells: HeLa cell extract
# T14 sequence (P81605 20-110): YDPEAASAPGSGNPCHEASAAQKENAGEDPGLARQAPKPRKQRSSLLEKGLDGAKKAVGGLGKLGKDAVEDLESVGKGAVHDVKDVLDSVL
# [15] = target: T15, HeLa cell extract proteins (Homo sapiens, UniProt Q14203)
# T15 construct: endogenous in cells; host or cells: HeLa cell extract
# T15 sequence (Q14203 whole entry): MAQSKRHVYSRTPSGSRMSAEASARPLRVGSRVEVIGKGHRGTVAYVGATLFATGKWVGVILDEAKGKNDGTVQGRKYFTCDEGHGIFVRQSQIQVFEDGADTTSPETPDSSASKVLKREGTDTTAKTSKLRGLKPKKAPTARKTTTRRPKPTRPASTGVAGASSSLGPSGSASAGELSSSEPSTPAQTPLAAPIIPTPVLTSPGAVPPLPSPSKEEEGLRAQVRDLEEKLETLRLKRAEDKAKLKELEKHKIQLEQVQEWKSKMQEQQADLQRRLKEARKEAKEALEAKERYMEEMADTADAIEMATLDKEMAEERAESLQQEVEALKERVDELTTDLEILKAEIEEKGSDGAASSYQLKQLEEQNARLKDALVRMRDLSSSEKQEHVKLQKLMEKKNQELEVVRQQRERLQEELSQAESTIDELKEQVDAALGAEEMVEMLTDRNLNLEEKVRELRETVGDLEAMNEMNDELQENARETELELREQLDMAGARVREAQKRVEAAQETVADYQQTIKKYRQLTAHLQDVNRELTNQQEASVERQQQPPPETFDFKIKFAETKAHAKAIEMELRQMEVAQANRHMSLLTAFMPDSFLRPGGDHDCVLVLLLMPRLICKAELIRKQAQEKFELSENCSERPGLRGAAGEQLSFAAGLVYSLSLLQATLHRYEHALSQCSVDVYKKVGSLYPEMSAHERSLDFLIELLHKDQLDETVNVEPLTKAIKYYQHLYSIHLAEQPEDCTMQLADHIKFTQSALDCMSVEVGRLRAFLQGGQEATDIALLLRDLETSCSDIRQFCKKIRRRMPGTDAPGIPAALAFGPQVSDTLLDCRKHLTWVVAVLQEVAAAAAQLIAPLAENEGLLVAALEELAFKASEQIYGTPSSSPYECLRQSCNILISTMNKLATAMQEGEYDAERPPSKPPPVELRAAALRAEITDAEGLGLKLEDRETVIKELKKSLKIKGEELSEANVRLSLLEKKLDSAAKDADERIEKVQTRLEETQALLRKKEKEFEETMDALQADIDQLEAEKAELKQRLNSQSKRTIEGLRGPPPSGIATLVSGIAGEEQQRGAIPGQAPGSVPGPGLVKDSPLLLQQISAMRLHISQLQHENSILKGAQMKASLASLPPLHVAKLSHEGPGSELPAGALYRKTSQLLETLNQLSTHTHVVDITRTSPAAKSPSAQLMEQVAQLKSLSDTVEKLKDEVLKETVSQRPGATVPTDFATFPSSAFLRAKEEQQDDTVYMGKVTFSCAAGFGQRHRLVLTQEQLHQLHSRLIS
# [16] = target: T16, HeLa cell extract proteins (Homo sapiens, UniProt Q8IYS1)
# T16 construct: endogenous in cells; host or cells: HeLa cell extract
# T16 sequence (Q8IYS1 1-436): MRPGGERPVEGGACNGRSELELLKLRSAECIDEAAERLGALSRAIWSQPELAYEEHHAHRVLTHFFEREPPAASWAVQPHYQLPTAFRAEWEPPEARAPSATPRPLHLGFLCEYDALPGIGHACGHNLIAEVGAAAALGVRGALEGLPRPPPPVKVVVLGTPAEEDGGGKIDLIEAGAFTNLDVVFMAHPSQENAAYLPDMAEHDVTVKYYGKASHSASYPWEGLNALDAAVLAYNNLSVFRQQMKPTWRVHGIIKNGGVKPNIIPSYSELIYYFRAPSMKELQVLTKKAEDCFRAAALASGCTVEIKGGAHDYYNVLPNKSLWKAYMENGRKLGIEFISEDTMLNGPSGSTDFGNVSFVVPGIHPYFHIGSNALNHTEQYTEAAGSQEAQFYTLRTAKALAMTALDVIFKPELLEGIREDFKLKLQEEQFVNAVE
# [17] = target: T17, HeLa cell extract proteins (Homo sapiens, UniProt Q92734)
# T17 construct: endogenous in cells; host or cells: HeLa cell extract
# T17 sequence (Q92734 whole entry): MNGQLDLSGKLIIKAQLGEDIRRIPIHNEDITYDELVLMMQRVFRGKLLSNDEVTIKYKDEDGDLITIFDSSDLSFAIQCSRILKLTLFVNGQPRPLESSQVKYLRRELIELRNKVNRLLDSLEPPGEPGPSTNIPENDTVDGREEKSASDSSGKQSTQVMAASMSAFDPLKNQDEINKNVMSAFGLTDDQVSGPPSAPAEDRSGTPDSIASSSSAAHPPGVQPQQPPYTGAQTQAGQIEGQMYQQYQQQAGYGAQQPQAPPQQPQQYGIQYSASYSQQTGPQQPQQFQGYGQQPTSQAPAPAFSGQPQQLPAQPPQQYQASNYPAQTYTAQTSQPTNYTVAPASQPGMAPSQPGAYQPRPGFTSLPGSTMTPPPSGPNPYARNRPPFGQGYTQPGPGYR
# [18] = target: T18, HeLa cell extract proteins (Homo sapiens, UniProt Q93074)
# T18 construct: endogenous in cells; host or cells: HeLa cell extract
# [19] = target: T19, HeLa cell extract proteins (Homo sapiens, UniProt Q9NR28)
# T19 construct: endogenous in cells; host or cells: HeLa cell extract
# T19 sequence (Q9NR28 22-239): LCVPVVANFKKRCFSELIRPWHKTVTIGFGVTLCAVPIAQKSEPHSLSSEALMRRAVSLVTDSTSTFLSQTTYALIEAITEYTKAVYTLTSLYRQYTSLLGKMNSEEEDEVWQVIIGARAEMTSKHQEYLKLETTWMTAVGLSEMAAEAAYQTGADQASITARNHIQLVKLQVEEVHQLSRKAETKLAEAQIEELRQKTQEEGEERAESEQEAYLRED
# [20] = target: T20, HeLa cell extract proteins (Homo sapiens, UniProt Q9Y6D5)
# T20 construct: endogenous in cells; host or cells: HeLa cell extract
# T20 sequence (Q9Y6D5 whole entry): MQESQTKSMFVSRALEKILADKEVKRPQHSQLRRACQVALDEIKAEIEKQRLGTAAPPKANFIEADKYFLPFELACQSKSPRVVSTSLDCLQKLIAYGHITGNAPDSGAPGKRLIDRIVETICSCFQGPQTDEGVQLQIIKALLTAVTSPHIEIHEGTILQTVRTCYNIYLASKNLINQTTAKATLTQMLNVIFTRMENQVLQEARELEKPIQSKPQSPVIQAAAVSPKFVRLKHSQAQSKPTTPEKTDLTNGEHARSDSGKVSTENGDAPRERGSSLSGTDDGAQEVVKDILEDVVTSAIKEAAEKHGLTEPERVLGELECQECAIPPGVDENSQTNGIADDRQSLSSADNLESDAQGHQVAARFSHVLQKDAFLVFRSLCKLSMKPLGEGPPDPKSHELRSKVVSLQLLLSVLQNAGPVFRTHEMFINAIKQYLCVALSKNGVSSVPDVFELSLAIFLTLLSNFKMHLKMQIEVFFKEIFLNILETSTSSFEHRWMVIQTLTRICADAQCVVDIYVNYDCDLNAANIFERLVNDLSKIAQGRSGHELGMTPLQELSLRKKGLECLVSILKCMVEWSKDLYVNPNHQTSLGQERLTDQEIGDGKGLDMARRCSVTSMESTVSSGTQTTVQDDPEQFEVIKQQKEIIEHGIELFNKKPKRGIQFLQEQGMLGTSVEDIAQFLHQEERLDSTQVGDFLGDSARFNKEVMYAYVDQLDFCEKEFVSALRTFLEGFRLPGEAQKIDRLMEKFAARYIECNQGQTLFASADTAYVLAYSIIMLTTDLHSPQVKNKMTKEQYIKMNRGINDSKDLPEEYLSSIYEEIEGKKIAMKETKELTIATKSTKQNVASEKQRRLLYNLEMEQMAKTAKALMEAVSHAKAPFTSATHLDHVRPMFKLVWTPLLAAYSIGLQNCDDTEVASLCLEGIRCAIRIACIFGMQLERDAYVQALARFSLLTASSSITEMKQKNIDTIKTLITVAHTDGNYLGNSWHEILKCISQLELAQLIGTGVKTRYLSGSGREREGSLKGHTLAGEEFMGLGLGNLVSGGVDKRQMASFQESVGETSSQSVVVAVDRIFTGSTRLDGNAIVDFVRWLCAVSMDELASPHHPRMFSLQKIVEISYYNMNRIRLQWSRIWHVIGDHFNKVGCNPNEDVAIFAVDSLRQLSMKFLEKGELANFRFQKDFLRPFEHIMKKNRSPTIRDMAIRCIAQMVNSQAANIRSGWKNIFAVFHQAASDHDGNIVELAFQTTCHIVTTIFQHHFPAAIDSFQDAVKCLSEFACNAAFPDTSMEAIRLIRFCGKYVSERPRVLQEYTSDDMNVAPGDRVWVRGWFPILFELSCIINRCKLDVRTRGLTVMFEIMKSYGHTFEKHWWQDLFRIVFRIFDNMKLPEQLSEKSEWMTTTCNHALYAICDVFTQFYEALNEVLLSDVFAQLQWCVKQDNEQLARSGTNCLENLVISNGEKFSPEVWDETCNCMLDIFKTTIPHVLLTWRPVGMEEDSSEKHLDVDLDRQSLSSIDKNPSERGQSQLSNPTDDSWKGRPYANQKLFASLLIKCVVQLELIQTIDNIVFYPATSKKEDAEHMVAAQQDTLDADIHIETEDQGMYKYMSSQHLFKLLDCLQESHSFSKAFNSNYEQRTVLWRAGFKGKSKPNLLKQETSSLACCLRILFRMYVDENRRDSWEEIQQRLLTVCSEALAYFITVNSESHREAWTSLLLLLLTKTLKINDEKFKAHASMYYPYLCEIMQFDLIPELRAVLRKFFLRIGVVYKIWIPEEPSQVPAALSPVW
# [21] = HeLa, protein HSP90AB1 (HEAT SHOCK PROTEIN HSP 90-BETA.)
# [22] = HeLa, protein ZC3H11A (ZINC FINGER CCCH DOMAIN-CONTAINING PROTEIN 11A)
# [23] = HeLa, protein PRKDC (ISOFORM 1 OF DNA-DEPENDENT PROTEIN KINASE CATALYTIC SUBUNIT)
Compound,"fold changes relative to vehicle control ([1]; captured protein ZC3H11A, HeLa)","fold changes relative to vehicle control ([2]; captured protein BAG2, HeLa)","fold changes relative to vehicle control ([3]; HeLa, protein TUBB)","fold changes relative to vehicle control [4, 21]","fold changes relative to vehicle control ([5]; protein PCNA, HeLa)","fold changes relative to vehicle control ([6]; protein AKR1B1, HeLa)","fold changes relative to vehicle control ([7]; protein NF1, HeLa)","fold changes relative to vehicle control ([8]; protein HSPA9, HeLa)","fold changes relative to vehicle control ([9]; captured protein CDK8, HeLa)","fold changes relative to vehicle control ([10]; protein TUFM, HeLa)","fold changes relative to vehicle control ([11]; protein RABGGTB, HeLa)","fold changes relative to vehicle control ([12]; HeLa, protein GNB2L1)","fold changes relative to vehicle control ([13]; HeLa, protein PRKDC)","fold changes relative to vehicle control ([14]; protein DCD, HeLa)","fold changes relative to vehicle control ([15]; protein DCTN1, HeLa)","fold changes relative to vehicle control ([16]; captured protein PM20D2, HeLa)","fold changes relative to vehicle control ([17]; protein TFG, HeLa)","fold changes relative to vehicle control ([18]; captured protein MED12, HeLa)","fold changes relative to vehicle control ([19]; captured protein DIABLO, HeLa)","fold changes relative to vehicle control ([20]; HeLa, protein ARFGEF2)",further results
Nc1nc2cccc(-c3ccccc3)c2n1Cc1ccc(Cl)c(Cl)c1 [compound 3],0.94,0.88,1.02,1.06 fold,0.77,0.8,1.06,0.98,1.03,0.92,1.06,1.12,1.2,1.26,1.1,1.1,1.02,1.14,1.01,0.95,
CCCCCCOc1ccc(Cc2cnc(N)nc2N)cc1 [compound 1],0.95,0.9,0.93,1.5 fold,1.18,1.12,0.84,0.95,0.96,1.18,1.07,1.12,1.01,9.15,1.18,1.09,0.96,1.01,1.09,1.04,
NCCCNc1ccc(C(=O)NC(CCC(=O)O)C(=O)O)cc1 (stereo not drawn) [compound 7],,,,,,,,,,0.88,,0.99,,1.23,1.03,,,,,1.17,"fold changes relative to vehicle control [1, 22]: 1.01; fold changes relative to vehicle control ([2]; HeLa, protein BAG2): 0.97; fold changes relative to vehicle control ([3]; protein TUBB, HeLa): 0.98; fold changes relative to vehicle control ([4]; HeLa, protein HSP90AB1): 0.98; fold changes relative to vehicle control ([5]; HeLa, captured protein PCNA): 1.02; fold changes relative to vehicle control ([6]; HeLa, protein AKR1B1): 0.95; fold changes relative to vehicle control ([7]; HeLa, protein NF1): 1.11; fold changes relative to vehicle control ([8]; HeLa, captured protein HSPA9): 0.97; fold changes relative to vehicle control ([9]; protein CDK8, HeLa): 1.01; fold changes relative to vehicle control ([11]; HeLa, captured protein RABGGTB): 1.03; fold changes relative to vehicle control [13, 23]: 1.16; fold changes relative to vehicle control ([16]; HeLa, protein PM20D2): 0.89; fold changes relative to vehicle control ([17]; HeLa, captured protein TFG): 1.06; fold changes relative to vehicle control ([18]; HeLa, protein MED12): 1.21; fold changes relative to vehicle control ([19]; HeLa, protein DIABLO (DIABLO HOMOLOG, MIT[…])): 1.05"
CCCCCCOc1cccc(Cc2cnc(N)nc2N)c1 [compound 2],1.01,1.15,0.82,2.33 fold,1.65,1.7,1.15,1.1,0.8,1.68,1.01,1.19,0.89,1.52,1.27,0.9,1.16,0.94,0.97,1.11,
NCCOCCOCC(=O)Nc1nc2ncc(CNc3ccc(C(=O)NC(CCC(=O)O)C(=O)O)cc3)nc2c(=O)[nH]1 (stereo not drawn) [compound 6],,,,,,,,,,1.07,,1.12,,0.86,1.32,,,,,1.15,"fold changes relative to vehicle control [1, 22]: 0.92; fold changes relative to vehicle control ([2]; HeLa, protein BAG2): 0.97; fold changes relative to vehicle control ([3]; protein TUBB, HeLa): 0.95; fold changes relative to vehicle control ([4]; HeLa, protein HSP90AB1): 1.36; fold changes relative to vehicle control ([5]; HeLa, captured protein PCNA): 1.47; fold changes relative to vehicle control ([6]; HeLa, protein AKR1B1): 1.2; fold changes relative to vehicle control ([7]; HeLa, protein NF1): 1.18; fold changes relative to vehicle control ([8]; HeLa, captured protein HSPA9): 0.99; fold changes relative to vehicle control ([9]; protein CDK8, HeLa): 0.9; fold changes relative to vehicle control ([11]; HeLa, captured protein RABGGTB): 0.91; fold changes relative to vehicle control [13, 23]: 1.17; fold changes relative to vehicle control ([16]; HeLa, protein PM20D2): 1.05; fold changes relative to vehicle control ([17]; HeLa, captured protein TFG): 1.01; fold changes relative to vehicle control ([18]; HeLa, protein MED12): 1.21; fold changes relative to vehicle control ([19]; HeLa, protein DIABLO (DIABLO HOMOLOG, MITOCHONDRIAL PRECURSOR)): 0.99"
"Nc1nc2[nH]cc(CCc3ccc(C(=O)N[C@@H](CCC(=O)O)C(=O)O)cc3)c2c(=O)[nH]1 [PTX, pemetrexed]",,,,,,,,,,,,,,,,,,,,,fold changes relative to vehicle control [1]: 0.96; fold changes relative to vehicle control [2]: 0.95; fold changes relative to vehicle control [3]: 0.84; fold changes relative to vehicle control [4]: 1.14; fold changes relative to vehicle control [5]: 1.29; fold changes relative to vehicle control [6]: 1.22; fold changes relative to vehicle control [7]: 1.04; fold changes relative to vehicle control [8]: 0.97; fold changes relative to vehicle control [9]: 0.77; fold changes relative to vehicle control [10]: 0.97; fold changes relative to vehicle control [11]: 0.97; fold changes relative to vehicle control [12]: 1.08; fold changes relative to vehicle control [13]: 1.06; fold changes relative to vehicle control [14]: 1.53; fold changes relative to vehicle control [15]: 1.17; fold changes relative to vehicle control [16]: 1; fold changes relative to vehicle control [17]: 1.05; fold changes relative to vehicle control [18]: 1; fold changes relative to vehicle control [19]: 1.01; fold changes relative to vehicle control [20]: 1.01

# From paper PMC6199744, “Development of Chemical Proteomics for the Folateome and Analysis of the Kinetoplastid Folateome” (ACS Infectious Diseases, 2018)
